Data: patent publication US9763909B2, “Methods for treating inflammation and pain” (Olatec Therapeutics LLC, priority 2012, dated 2017)

Key:
IL-1β = assay: Inhibition of IL-1β secretion in LPS-stimulated PBMCs; assay type: cell-based; conditions: Homo sapiens, PBMC; PBMCs stimulated with LPS (50 pg/mL); read-out: EC50 for inhibiting IL-1β
Method: (§1) Objective: Test 3-(methylsulfonyl)acrylonitrile for inhibition of cytokine secretion in peripheral blood mononuclear cells (PBMCs) stimulated with lipopolysaccharide (LPS).
(§2) Cytokines: IL-1β, IL-6, TNFα
(§3) Test Compound Dose Concentrations: 50, 10, 5, 1, 0.5, 0.1 μM
(§4) Cells negative control: Vehicle only/No LPS
(§5) Positive control: Dexamethasone (100 nM, n=2)
(§6) 1. Microtiter plates were seeded with 1×10^4 PBMCs/well in […], culture medium (RPMI 1640, 10% FBS, 1% Pen/Strep, 2 mM L-Alanyl-L-glutamine)
(§7) 2. The plates were incubated at 37° C. in 5% CO2 for 1 hour.
(§8) 3. 10 μL of test compound (at different concentrations), dexamethasone, and vehicle controls were added to appropriate wells, and the plates were incubated at 37° C. in 5% CO2 for 1 hour.
(§9) 4. 40 μL of LPS (50 pg/mL final) were added and the plates were incubated at 37° C. in 5% CO2 for 1 hour.
(§10) 5. The plates were centrifuged at 1000 rpm for 10 minutes and supernatants were collected.
(§11) 6. The supernatants were assayed for IL-1β, IL-6, TNFα levels using the Luminex Bead kit.
(§12) 7. EC50 values were determined.

IL-6 = assay: Inhibition of IL-6 secretion in LPS-stimulated PBMCs; assay type: cell-based; conditions: Homo sapiens, PBMC; PBMCs stimulated with LPS (50 pg/mL); read-out: EC50 for inhibiting IL-6
Method: as §1, §2, §3, §4, §5, §6, §7, §8, §9, §10, §11, §12

TNFα = assay: Inhibition of TNFα secretion in LPS-stimulated PBMCs; assay type: cell-based; conditions: Homo sapiens, PBMC; PBMCs stimulated with LPS (50 pg/mL); read-out: EC50 for inhibiting TNFα
Method: as §1, §2, §3, §4, §5, §6, §7, §8, §9, §10, §11, §12

[1] = test system: arachidonic acid induced ear swelling; assay: Topical arachidonic acid induced ear swelling model, oral administration; assay type: in vivo, mice; conditions: for % Inhibition: ear swelling at 60 minutes
Method: The test compound, dexamethasone (positive control), and vehicle were orally administered to mice and evaluated for anti-inflammatory activity in the topical arachidonic acid induced ear swelling model in mice. […] All animals were maintained in a controlled temperature (22-24° C.) and humidity (60%-70%) environment with 12-hour light/dark cycles for at least one week prior to use. Arachidonic acid (0.5 mg in 20 μL acetone) was applied topically onto the anterior and posterior surfaces of the right ear of test animals to induce inflammation. […] At 60 minutes after arachidonic acid induction of ear edema, the thickness of the right ear and the left ear was measured and the difference calculated as an indication of the inflammation in the right ear.

tail-flick latency = assay: Tail-flick latency (52° C. water bath), potentiation of morphine analgesia; assay type: in vivo, mice
Method: The response of the mice to nociceptive stimuli was evaluated using the time of tail-flick or tail-flick latency from 52° C. water bath. Briefly, the animal was placed in a restrainer with its tail outside. The tail (distal ⅓rd) was immersed into 52° C. water and the time for the mouse to flick its tail out of the water was recorded. The maximum exposure permitted was 10 seconds. If there was no response within 10 seconds, the animal tail was removed from the water to prevent damage to the tail. Baseline data were collected using the tail flick procedure 2 times over 1 hour, prior to any drug administration. The last baseline response data point was used as basal tail flick latency.
3-(methylsulfonyl)acrylonitrile was dissolved in 0.5% methyl cellulose (MC) to 2 mg/mL, and orally administered to mice (n=5) in a volume of 10 ml/kg (20 mg/kg), 1 hour prior to morphine dosing. One mL plastic disposal tuberculin syringes (Becton Dickinson & Co. Franklin Lakes, N.J.) and 20 gauge×38 mm flexible plastic feeding tubes (Instech Laboratories, Plymouth Meeting, Pa.) were used for oral drug administration. Morphine at 5 mg/kg in saline was subcutaneously administered to mice at time zero.
Tail flick measurements were made at 5, 15, 30, 45, 60, and 75 minutes post-morphine administration.
Statistical evaluation was done using an appropriate analysis of variance (ANOVA) using tail flick latencies. […] Analysis with p-values <0.05 is considered significant.

## CS(=O)(=O)C=CC#N [3-(methylsulfonyl)acrylonitrile]
IL-1β
  EC50: 160 nM
IL-6
  EC50: 190 nM
TNFα
  EC50: 300 nM
[1]; 0.1 mg/kg oral gavage 1 hour before arachidonic acid
  % Inhibition: 11%
[1]; 0.3 mg/kg oral gavage 1 hour before arachidonic acid
  % Inhibition: 11%
[1]; 1 mg/kg oral gavage 1 hour before arachidonic acid
  % Inhibition: 9%
[1]; 3 mg/kg oral gavage 1 hour before arachidonic acid
  % Inhibition: 13%
[1]; 10 mg/kg oral gavage 1 hour before arachidonic acid
  % Inhibition: 26%
[1]; 10 mg/kg oral, at 60 minutes, vs vehicle, t-test p<0.05
  inhibition in arachidonic acid induced ear swelling (in words): significant inhibition
tail-flick latency; 20 mg/kg oral 1 hour before morphine 5 mg/kg s.c., 75 minutes post dosing
  analgesic effect (tail flick), morphine plus compound: strong analgesic effects
tail-flick latency; 20 mg/kg oral 1 hour before morphine 5 mg/kg s.c., measured at 30, 60, and 75 minutes post morphine dosing
  latency of tail flick, morphine plus compound vs morphine alone: increases the latency of tail flick significantly

## CN1CC[C@]23c4c5ccc(O)c4O[C@H]2[C@@H](O)C=C[C@H]3[C@H]1C5 [morphine, reference compound]
tail-flick latency; morphine 5 mg/kg s.c., 75 minutes post dosing
  analgesic effect (tail flick), morphine alone: no effect

## C[C@@H]1C[C@H]2[C@@H]3CCC4=CC(=O)C=C[C@]4(C)[C@@]3(F)[C@@H](O)C[C@]2(C)[C@@]1(O)C(=O)CO [Dexamethasone, reference compound]
[1]; 0.3 mg/kg oral gavage 3 hour before arachidonic acid
  % Inhibition: 39%
